Measured values as given in patent US9260504B2, “N- and C-terminal substituted antagonistic analogs of GH-RH” (University of Miami, priority 2008, dated 2016).
Marks after values point to notes of the source that are not given here.

Experiments:
pituitary receptors = molecular target: T1, pituitary receptors (Homo sapiens, UniProt Q02643); details: biological activity on the pituitary; cited from earlier work
T1 construct: host or cells: pituitary
T1 sequence (Q02643 23-423): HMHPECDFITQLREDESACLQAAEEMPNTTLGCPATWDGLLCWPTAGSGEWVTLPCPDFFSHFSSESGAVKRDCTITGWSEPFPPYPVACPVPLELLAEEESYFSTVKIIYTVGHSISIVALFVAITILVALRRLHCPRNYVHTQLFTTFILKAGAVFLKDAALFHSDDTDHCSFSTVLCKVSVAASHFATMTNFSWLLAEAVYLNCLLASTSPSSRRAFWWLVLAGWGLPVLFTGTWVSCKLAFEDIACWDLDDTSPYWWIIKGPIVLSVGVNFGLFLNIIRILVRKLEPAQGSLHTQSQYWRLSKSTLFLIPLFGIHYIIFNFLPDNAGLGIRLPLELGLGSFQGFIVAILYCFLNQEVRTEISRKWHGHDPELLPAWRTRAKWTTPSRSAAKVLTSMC

[1] = test system: H-460 human non-small cell lung cancer; assay: H-460 human non-SCLC xenografts in nude mice, Experiment 1; type: in vivo; details: 10 μg/day s.c., 28 days; means±S.E.
Protocol: Male nude mice were implanted s.c. with 3 mm^3 pieces of H-460 human non-SCLC tumor tissue on both flanks. When tumors had grown to a mean volume of approximately 90 mm^3, the mice were randomly assigned into 4 experimental groups with 10 animals in each group and received single daily injections for 28 days as follows: 1. Control (vehicle solution); 2. JMR-132 (10 μg/day s.c.); 3. Peptide 1109 (10 μg/day s.c.); 4. Peptide 11111 (10 μg/day s.c.). Tumor volumes were measured once a week. The experiment was ended on day 28 by sacrificing the mice under Isoflurane anesthesia. Resulting tumors were cleaned, weighed, and snap-frozen until further analyses. Statistical analyses of the measurement results were done by two-tailed t-test, p<0.05 being considered significant. Data are presented as the means±S.E.

[2] = test system: PC-3 human hormone-independent prostate cancer; assay: PC-3 human prostate cancer xenografts in nude mice, Experiment 1; type: in vivo; details: 10 μg/day s.c., daily for 35 days; means±S.E.
Protocol: (§1) Male nude mice were implanted s.c. with 3 mm^3 pieces of PC-3 human hormone-independent prostate cancer tissue on both flanks. When tumors reached a volume of approx. 50 mm^3, the mice were divided into 4 experimental groups with 8 to 10 animals in each group and received single daily injections for 35 days as follows: 1. Control (vehicle solution); 2. JMR-132 (10 μg/day s.c.); 3. Peptide 1109 (10 μg/day s.c.); 4. Peptide 11111 (10 μg/day s.c.); Tumor volumes were measured once a week. The experiment was ended on day 35 by sacrificing the mice under Isoflurane anesthesia. Resulting tumors were cleaned, weighed, and snap-frozen until further analyses. Statistical analyses of the measurement results were done by two-tailed t-test, p<0.05 being considered significant. Data are presented as the means±S.E.

[3] = test system: PC-3 human hormone-independent prostate cancer; assay: PC-3 human prostate cancer xenografts in nude mice, Experiment 3; type: in vivo; details: 2 μg/day s.c., 28 days
Protocol: Male nude mice were implanted s.c. with 3 mm^3 pieces of PC-3 human hormone-independent prostate cancer tissue on both flanks. When tumors reached a volume of approximately 50 mm^3, the mice were divided into 12 experimental groups with 8 to 10 animals in each group and received single daily injections for 28 days as follows: 1. Control (vehicle solution); 2. JMR-132 (10 μg/day s.c.); 3. Peptide 11113 (2 μg/day s.c.); 4. Peptide 11119 (2 μg/day s.c.); 5. Peptide 11209 (2 μg/day s.c.); 6. Peptide 11313 (2 μg/day s.c.); 7. Peptide 11408 (2 μg/day s.c.); 8. Peptide 11435 (2 μg/day s.c.); 9. Peptide 11457 (2 μg/day s.c.); 10. Peptide 11459 (2 μg/day s.c.); 11. Peptide 11469 (2 μg/day s.c.); 12. Peptide 11491 (2 μg/day s.c.).
Tumor volumes were measured once a week. The experiment was ended on day 28 by sacrificing the mice under Isoflurane anesthesia. Resulting tumors were cleaned, weighed, and snap-frozen until further analyses. Statistical analyses of the measurement results were done by two-tailed t-test, p<0.05 being considered significant.

[4] = test system: H-460 human non-small cell lung cancer; assay: H-460 human non-SCLC xenografts in nude mice, Experiment 2; type: in vivo; details: 5 μg/day s.c.; for Tumor growth after 4 weeks (%): means±S.E.; for Inhibition (%): after 4 weeks
Protocol: Male nude mice were implanted s.c. with 3 mm^3 pieces of H-460 human non-SCLC tumor tissue on both flanks. When tumors had grown to a mean volume of approximately 90 mm^3, the mice were randomly assigned into 12 experimental groups with 8 to 10 animals in each group and received single daily injections for 28 days as follows: 1. Control (vehicle solution); 2. JMR-132 (10 μg/day s.c.); 3. Peptide 11109 (5 μg/day s.c.); 4. Peptide 11113 (5 μg/day s.c.); 5. Peptide 11119 (5 μg/day s.c.); 6. Peptide 11209 (5 μg/day s.c.); 7. Peptide 11313 (5 μg/day s.c.); 8. Peptide 11408 (5 μg/day s.c.); 9. Peptide 11435 (5 μg/day s.c.); 10. Peptide 11459 (5 μg/day s.c.); 11. Peptide 11469 (5 μg/day s.c.); 12. Peptide 11491 (5 μg/day s.c.). Tumor volumes were measured once a week. The experiment was ended on day 28 by sacrificing the mice under Isoflurane anesthesia. Resulting tumors were cleaned, weighed, and snap-frozen until further analyses. Statistical analyses of the measurement results were done by two-tailed t-test, p<0.05 being considered significant. Data are presented as the means±S.E.

[5] = test system: Human ovarian cancer SKOV3 cells; assay: SKOV3 ovarian cancer xenografts in nude mice; type: in vivo; details: 5 μg/day s.c.
Source text: Human ovarian cancer SKOV3 cells growing exponentially were implanted info five female nude mice by subcutaneous (s.c.) injection of 10^7 cells in both flanks. Tumors That resulted after approximately 4 weeks in donor animals were then aseptically dissected and mechanically minced. Three mm^3 pieces of tumor tissue were transplanted subcutaneously into experimental animals with a trocar needle. When tumors reached an appropriate size (approximately 50 mm^3), mice were randomly divided into […]. The first was the control group, the second group was treated with daily s.c. injections of 5 μg P-11313, the third group was treated with daily s.c. injections of 5 μg P-11604, the fourth group was treated with daily s.c. injections of 5 μg P-11610. Tumor volume (length×width×height×0.5236) was measured every week and mean tumor volumes of each group were compared by Student's t-test. The study lasted 49 days. One week after end of treatment, mice were killed under anesthesia, tumors were snap frozen and stored at −70° C.

GH secretion = details: cited from earlier work
[6] = test system: rat anterior pituitary adenylate cyclase; details: cited from earlier work
[7] = test system: PC-3 human hormone-independent prostate cancer; assay: PC-3 human prostate cancer xenografts in nude mice, Experiment 2; type: in vivo; details: for Inhibition (%): tumor growth after 2 weeks
Protocol: as §1
Experiment 2 was similar to Experiment 1. Experiment 2 was started when PC-3 tumors had grown to approximately 50 mm^3 in volume. At this time, the animals were divided into 5 experimental groups with 8 animals in each group, and received single daily injections for 14 days as follows: 1. Control (vehicle solution); 2. JMR-132 (10 μg/day s.c.); 3. Peptide 1109 (5 μg/day s.c.); 4. Peptide 11109 (5 μg/day s.c.); 5. Peptide 11109 (2 μg/day s.c.). Further details of Experiment 2 are the same as for Experiment 1

[8] = test system: Panc-1 human pancreatic cancer; assay: Panc-1 human pancreatic cancer xenografts in nude mice; type: in vivo; details: 10 μg/day s.c. for 36 days
Protocol: Panc-1 cancers were transplanted s.c. into both flank areas of 60 female nude mice, and allowed to grow for 105 days before starting the treatment with GH-RH antagonists. The mice were randomly assigned into 3 experimental groups with 8 animals in each group and received single daily injections for 36 days as follows: 1. Control (vehicle solution); 2. JMR-132 (10 μg/day s.c.); 3. Peptide 11457 (10 μg/day s.c.). Tumor volumes were measured once a week. The experiment was ended on day 82 by sacrificing the mice under Isoflurane anesthesia. Resulting tumors were cleaned, weighed, and snap-frozen until further analyses. Statistical analyses of the measurement results were done by two-tailed t-test, p<0.05 being considered significant. Data are presented as the means±S.E.

## Tyr-Ala-Asp-Ala-lle^5-Phe-Thr-Asn-Ser-Tyr^10-Arg-Lys-Val-Leu-Gly^15-Gln-Leu-Ser-Ala-Arg^20-Lys-Leu-Leu-Gln-Asp^25-Ile-Met-Ser-Arg^29-NH2 [GH-RH(1-29)]
Pituitary receptors
  Potency relative to native GH-RH: ≥ 50%

## [(Ac-Ada)^0-Tyr^1, D-Arg^2, Cpa^6, Ala^8, Har^9, Tyr(Me)^10, His^11, Abu^15, His^20, Nle^27, D-Arg^28, Har^29]hGH-RH(1-29)NH2 [Peptide 11111]
[1]
  Tumor growth after 4 weeks (%): 2005 ± 541%
[2]
  Tumor growth after 5 weeks (%): 1215 ± 243%

## [(Ac-Amc)^0-Tyr^1, D-Arg^2, Cpa^6, Ala^8, Har^9, Tyr(Me)^10, His^11, Orn^12, Abu^15, His^20, Nle^27, D-Arg^28, Har^29-Agm^30]hGH-RH(1-29) [Peptide 11313]
[3]
  Tumor growth inhibition after 4 weeks (%): 78.20%
[4]; 28 days
  Tumor growth after 4 weeks (%): 3091 ± 1215%
[4]
  Inhibition (%): 60.84%
[5]; day 0 (baseline)
  TU growth (%): 100%
[5]; day 7
  TU growth (%): 147.84%
  TU inhibition (%): 31.04%
[5]; day 14
  TU growth (%): 140%
  TU inhibition (%): 50.04%
[5]; day 21
  TU growth (%): 196.6%
  TU inhibition (%): 63.83%
[5]; day 28
  TU growth (%): 249.65%
  TU inhibition (%): 70.35%
[5]; day 35
  TU growth (%): 201.5%
  TU inhibition (%): 77.43%
[5]; day 42
  TU growth (%): 274.05%
  TU inhibition (%): 77.83%
[5]; day 49
  TU growth (%): 328.63%
  TU inhibition (%): 74.16%

## [Ac-Tyr^1,D-Arg^2]hGH-RH(1-29)NH2 [standard antagonist]
GH secretion; a patient with acromegaly
  Effect on GH levels: reduced GH levels
GH secretion; normal subjects, 400 μg/kg
  Effect on nocturnal GH secretion: eliminated nocturnal GH secretion
[6]
  Effect on activation of adenylate cyclase by hGH-RH(1-29)NH2: prevent the activation of rat anterior pituitary adenylate cyclase

## [Dca^0-Tyr^1, D-Arg^2, Cpa^6, Ala^8, Har^9, Tyr(Me)^10, His^11, Abu^15, His^20, Nle^27, D-Arg^28, Har^29]hGH-RH(1-29)NH2 [Peptide 11109]
[4]; 28 days
  Effect on the growth of H-460 lung cancers in vivo: had no effect
  Tumor growth after 4 weeks (%): 7890 ± 4127%
[4]
  Inhibition (%): 0.05%
[7]; 2 μg/day s.c., 14 days
  Tumor growth after 2 weeks (%): 318%
[7]; 5 μg/day s.c., 14 days
  Tumor growth after 2 weeks (%): 217%
[7]; Peptide 1109 5 μg/day, Peptide 11109 5 and 2 μg/day, JMR-132 10 μg/day, 14 days
  Inhibition of PC-3 tumor growth compared with reference peptide JMR-132: inhibited the growth of PC-3 tumors more potently than reference peptide JMR-132
[7]; 2 μg/day s.c.
  Inhibition (%): 55.55%
[7]; 5 μg/day s.c.
  Inhibition (%): 69.68%

## [PhAc^0-Tyr^1, D-Arg^2, Cpa^6, Ala^8, Har^9, Tyr(Me)^10, His^11, Orn^12, Abu^15, His^20, Orn^21, Nle^27, D-Arg^28, Har^29-Ada^30]hGH-RH(1-29)NH2 [Peptide 11457]
[3]
  Tumor growth inhibition after 4 weeks (%): 85.98%
[8]; end of experiment day 82
  Tumor weights: 76 ± 166 mg
[8]; means±S.E.
  Tumor growth from day 1 to day 82 (%): 740 ± 1220 %
  Tumor volume on day 82 (mm^3): 262 ± 103* mm^3
[8]; observed for at least 82 days
  Effect on the growth of Panc-1 human pancreatic cancers: powerfully inhibited the growth of Panc-1 human pancreatic cancers
